Laboratory results from publication PMC8576438, “Identification and Functional Analysis of G Protein-Coupled Receptors in 20-Hydroxyecdysone Signaling From the Helicoverpa armigera Genome” (Frontiers in Cell and Developmental Biology, 2021).

System: T1, prolactin-releasing peptide receptor (PRRPR)
T1 construct: full ORF (XP_021184170.1) fused to GFP (PRRPR-GFP), in membranes of overexpressing HaEpi cells
Assay: saturation binding to membranes of PRRPR-GFP-overexpressing HaEpi cells, bound […] quantified by enzyme immunoassay ([…]-EIA)
Set-up: species or system Helicoverpa armigera

CC(C)(O)CC[C@@H](O)[C@](C)(O)[C@H]1CC[C@@]2(O)C3=CC(=O)[C@@H]4C[C@@H](O)[C@@H](O)C[C@]4(C)[C@H]3CC[C@]12C [20E, 20-hydroxyecdysone]
Kd: 12.8 ± 2.19 nM
